Ends that are not written are not given here.
Target: T1, Human recombinant CypD (Homo sapiens, UniProt P30405)
T1 construct: purchased Beyotime (Shanghai, China)
Assay: chymotrypsin coupled prolyl-isomerase inhibitory assay
Format: biochemical
Conditions: Suc-AAPF-AMC substrate, peptide 0.001 to 100 μM, 25 °C
Method: The method for measuring half-maximal inhibitory concentration (IC50) values of the peptides against CypD was described previously as chymotrypsin coupled prolyl-isomerase assay. Human recombinant CypD was purchased from Beyotime (Shanghai, China). The substrate solution for inhibitory assay was prepared as 100 μM Suc-AAPF-AMC (Chymotrypsin Substrate II, Sigma–Aldrich, Shanghai, China) with varied concentration of selected peptide (varied from 0.001 to 100 μM), 15 μg/mL CypD, and 0.5 M LiCl/2,2,2-trifluoroethanol. Alpha-chymotrypsin from bovine pancreas was purchased from Sigma (Shanghai, China) and dissolved in 0.001 M HCl, the concentration for chymotrypsin was prepared to 5 mg/mL. For inhibitory assay, the 96-well plate was filled with 150 μL of the substrate solution and incubated at 25 °C for 1 hour, followed by adding 40 μL of the chymotrypsin solution. The fluorescent changes under 380 nm was captured every 5 seconds for 300 seconds using Mltrospec 3100. The IC50 value was calculated which indicated the peptide concentration needed for obtaining 50% of […] inhibitory activity.
The binding affinity of selected peptides against CypD was tested using a modified inhibitory assay.[37] […] The selected 5 peptides were preincubated with CypD to validate their capability for blocking CypD activity. […] Compound C-9 was previously reported as a strong binder of CypD,[37] therefore, we adopted compound C-9 as a reference sample to evaluate the binding activity of the designed peptides.

T1 sequence (P30405 30-207): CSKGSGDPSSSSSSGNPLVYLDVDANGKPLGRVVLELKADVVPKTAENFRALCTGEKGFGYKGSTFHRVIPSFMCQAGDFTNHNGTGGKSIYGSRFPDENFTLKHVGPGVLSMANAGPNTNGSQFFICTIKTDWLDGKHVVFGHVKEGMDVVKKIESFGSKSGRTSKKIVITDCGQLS

IC50 [nM]	Substance
10500	WACKQ [WACKQ]
2630	WACNQ [WACNQ]
2460	WACKN [WACKN]
370	WACLQ [WACLQ]

— publication PMC10695616, “Rational design peptide inhibitors of Cyclophilin D as a potential treatment for acute pancreatitis” (Medicine, 2023)
